Common to all, as to assay: kinome screen (33PanQinase)
Type in all cases: biochemical

Assay [1] has as its target T1, CAMK2G (Homo sapiens, UniProt Q13555).
T1 construct: purchased Reaction Biology Europe GmbH (formerly ProQinase)
On the procedure: (§1) The Kinome Screening was performed by Reaction Biology Europe GmbH (http://reactionbiology.com; Freiburg i. Br., Germany).

The target of assay [2] is T2, CDK5/p25NCK (Homo sapiens, UniProt Q00535).
T2 construct: purchased Reaction Biology Europe GmbH (formerly ProQinase)
T2 sequence (Q00535 whole entry): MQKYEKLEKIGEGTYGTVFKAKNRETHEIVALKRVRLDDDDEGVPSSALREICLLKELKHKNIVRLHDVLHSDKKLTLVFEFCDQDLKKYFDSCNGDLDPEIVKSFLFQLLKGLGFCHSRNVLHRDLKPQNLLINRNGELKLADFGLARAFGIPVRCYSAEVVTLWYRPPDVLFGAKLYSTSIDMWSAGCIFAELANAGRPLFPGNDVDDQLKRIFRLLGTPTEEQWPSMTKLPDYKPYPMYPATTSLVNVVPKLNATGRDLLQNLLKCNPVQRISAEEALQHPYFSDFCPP
T2 sequence (Q15078 99-307 partner limits assumed): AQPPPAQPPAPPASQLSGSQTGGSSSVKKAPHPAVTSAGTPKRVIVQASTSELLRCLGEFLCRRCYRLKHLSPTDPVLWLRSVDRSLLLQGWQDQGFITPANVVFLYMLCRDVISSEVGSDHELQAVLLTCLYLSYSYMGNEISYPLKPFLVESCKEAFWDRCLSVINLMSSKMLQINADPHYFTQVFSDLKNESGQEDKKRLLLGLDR
On the procedure: as §1

The target of assay [3] is T3, INSR (Homo sapiens, UniProt P06213).
T3 construct: purchased Reaction Biology Europe GmbH (formerly ProQinase)
T3 sequence (P06213 28-1382): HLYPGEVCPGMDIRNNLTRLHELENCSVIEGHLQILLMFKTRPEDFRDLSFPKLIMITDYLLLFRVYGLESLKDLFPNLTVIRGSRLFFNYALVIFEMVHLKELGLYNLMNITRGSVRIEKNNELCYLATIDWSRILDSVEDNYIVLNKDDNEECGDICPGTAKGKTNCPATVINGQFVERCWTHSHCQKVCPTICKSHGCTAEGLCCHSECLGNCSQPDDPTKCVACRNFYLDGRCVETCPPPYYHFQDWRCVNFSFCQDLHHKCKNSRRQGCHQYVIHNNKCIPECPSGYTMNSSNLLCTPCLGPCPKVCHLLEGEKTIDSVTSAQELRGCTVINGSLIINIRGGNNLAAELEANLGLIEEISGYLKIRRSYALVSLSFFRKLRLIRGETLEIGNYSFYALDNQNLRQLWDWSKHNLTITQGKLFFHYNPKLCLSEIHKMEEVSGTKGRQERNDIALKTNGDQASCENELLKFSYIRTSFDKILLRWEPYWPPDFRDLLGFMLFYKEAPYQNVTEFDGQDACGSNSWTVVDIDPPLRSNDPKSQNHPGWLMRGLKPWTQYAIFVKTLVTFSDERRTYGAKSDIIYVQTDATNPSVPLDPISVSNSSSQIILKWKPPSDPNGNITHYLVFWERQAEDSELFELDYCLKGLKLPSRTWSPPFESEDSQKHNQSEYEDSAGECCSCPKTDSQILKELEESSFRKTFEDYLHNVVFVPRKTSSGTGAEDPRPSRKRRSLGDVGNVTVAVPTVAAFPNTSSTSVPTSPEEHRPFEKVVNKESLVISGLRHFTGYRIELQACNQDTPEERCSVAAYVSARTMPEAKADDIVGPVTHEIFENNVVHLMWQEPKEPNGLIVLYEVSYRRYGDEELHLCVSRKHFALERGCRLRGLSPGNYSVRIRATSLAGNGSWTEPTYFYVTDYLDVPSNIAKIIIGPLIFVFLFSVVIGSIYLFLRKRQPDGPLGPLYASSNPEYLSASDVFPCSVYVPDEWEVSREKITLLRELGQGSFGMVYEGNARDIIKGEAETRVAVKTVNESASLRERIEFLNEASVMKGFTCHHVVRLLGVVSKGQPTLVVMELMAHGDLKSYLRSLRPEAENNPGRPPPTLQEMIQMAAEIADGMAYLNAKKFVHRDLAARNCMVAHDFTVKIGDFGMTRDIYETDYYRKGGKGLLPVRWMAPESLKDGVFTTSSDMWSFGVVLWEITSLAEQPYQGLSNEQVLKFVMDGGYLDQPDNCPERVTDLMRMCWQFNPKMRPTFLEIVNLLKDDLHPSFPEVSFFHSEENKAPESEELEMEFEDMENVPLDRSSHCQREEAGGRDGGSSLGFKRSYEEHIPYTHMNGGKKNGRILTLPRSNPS
On the procedure: as §1

For assay [4], the target named is T4, CDK6/CycD1 (Homo sapiens, UniProt Q00534).
T4 construct: purchased Reaction Biology Europe GmbH (formerly ProQinase)
T4 sequence (Q00534 whole entry): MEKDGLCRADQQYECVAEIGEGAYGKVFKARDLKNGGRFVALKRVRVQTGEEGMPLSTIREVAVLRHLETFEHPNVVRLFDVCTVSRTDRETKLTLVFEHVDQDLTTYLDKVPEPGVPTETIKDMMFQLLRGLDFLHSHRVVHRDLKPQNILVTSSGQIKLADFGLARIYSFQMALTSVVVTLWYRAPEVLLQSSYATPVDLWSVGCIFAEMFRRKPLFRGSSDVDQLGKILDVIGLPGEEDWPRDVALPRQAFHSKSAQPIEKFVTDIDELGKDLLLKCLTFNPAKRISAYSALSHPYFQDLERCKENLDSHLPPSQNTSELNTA
T4 sequence (P24385 whole entry partner): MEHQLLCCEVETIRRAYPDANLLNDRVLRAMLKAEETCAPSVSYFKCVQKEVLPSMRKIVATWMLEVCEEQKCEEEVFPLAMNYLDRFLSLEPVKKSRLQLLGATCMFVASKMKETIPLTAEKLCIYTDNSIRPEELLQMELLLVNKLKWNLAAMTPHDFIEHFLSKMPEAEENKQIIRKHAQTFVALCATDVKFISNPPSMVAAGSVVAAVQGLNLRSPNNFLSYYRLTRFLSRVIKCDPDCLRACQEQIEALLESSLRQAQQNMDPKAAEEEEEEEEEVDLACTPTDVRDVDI
On the procedure: as §1

Assay [5] addresses T5, IKKα (Homo sapiens, UniProt O15111).
T5 construct: purchased Reaction Biology Europe GmbH (formerly ProQinase)
T5 sequence (O15111 1-745): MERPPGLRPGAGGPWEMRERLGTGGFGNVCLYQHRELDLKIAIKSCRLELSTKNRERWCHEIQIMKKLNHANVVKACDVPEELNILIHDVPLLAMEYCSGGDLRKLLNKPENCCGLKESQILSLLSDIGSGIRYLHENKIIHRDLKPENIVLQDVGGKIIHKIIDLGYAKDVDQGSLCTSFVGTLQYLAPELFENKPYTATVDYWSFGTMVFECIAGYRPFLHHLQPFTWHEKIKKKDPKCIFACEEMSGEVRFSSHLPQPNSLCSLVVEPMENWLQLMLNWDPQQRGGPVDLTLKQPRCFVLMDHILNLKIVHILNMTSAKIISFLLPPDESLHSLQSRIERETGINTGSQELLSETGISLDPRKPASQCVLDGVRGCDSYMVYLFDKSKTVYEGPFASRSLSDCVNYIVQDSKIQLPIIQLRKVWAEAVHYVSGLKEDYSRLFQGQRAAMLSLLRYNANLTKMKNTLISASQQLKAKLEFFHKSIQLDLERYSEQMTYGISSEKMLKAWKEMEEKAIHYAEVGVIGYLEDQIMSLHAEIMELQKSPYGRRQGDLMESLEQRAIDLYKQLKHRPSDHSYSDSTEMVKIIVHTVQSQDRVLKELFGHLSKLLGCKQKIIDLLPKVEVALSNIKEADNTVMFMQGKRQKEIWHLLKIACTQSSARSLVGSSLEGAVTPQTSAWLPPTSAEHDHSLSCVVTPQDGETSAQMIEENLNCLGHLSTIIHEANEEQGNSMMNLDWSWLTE
On the procedure:
as §1

For assay [6], the target named is T6, BRSK1 (Homo sapiens, UniProt Q8TDC3).
T6 construct: purchased Reaction Biology Europe GmbH (formerly ProQinase)
T6 sequence (Q8TDC3 1-778): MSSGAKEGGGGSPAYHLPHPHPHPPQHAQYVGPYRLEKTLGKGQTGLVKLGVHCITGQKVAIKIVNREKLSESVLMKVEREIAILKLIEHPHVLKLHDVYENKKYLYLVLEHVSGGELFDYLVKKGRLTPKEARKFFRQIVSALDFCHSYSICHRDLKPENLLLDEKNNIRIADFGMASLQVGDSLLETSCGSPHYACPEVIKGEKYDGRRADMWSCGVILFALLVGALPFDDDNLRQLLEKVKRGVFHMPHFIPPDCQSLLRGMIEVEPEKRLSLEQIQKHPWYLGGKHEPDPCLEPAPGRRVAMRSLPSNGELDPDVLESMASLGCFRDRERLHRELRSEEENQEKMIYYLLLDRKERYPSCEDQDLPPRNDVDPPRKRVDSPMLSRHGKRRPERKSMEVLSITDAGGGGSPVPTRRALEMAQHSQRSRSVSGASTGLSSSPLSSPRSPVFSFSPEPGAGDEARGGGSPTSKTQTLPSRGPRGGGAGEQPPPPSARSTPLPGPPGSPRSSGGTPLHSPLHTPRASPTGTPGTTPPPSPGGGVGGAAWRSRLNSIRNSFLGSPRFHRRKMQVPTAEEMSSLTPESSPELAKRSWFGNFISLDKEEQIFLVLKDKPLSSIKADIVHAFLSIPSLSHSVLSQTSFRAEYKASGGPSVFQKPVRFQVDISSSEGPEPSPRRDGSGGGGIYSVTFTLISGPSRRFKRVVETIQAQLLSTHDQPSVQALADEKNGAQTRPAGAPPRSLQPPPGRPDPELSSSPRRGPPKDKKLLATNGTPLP
On the procedure: as §1

Assay [7] concerns the target T7, SRMS (Homo sapiens, UniProt Q9H3Y6).
T7 construct: purchased Reaction Biology Europe GmbH (formerly ProQinase)
Here is the method:
as §1

In assay [8] the target is T8, VRK1 (Homo sapiens, UniProt Q99986).
T8 construct: purchased Reaction Biology Europe GmbH (formerly ProQinase)
T8 sequence (Q99986 1-396): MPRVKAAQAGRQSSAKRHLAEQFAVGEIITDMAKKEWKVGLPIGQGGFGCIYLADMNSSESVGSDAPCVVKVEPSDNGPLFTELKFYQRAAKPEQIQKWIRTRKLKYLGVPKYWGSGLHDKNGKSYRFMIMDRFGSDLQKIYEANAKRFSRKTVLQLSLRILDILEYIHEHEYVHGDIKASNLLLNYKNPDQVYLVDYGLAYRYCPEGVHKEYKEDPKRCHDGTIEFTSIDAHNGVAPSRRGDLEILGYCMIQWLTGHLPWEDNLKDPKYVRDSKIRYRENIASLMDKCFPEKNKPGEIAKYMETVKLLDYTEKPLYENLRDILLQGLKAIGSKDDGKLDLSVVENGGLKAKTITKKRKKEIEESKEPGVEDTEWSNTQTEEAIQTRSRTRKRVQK
On the procedure: as §1

Assay [9] has as its target T9, TSSK1 (Homo sapiens, UniProt Q9BXA7).
T9 construct: purchased Reaction Biology Europe GmbH (formerly ProQinase)
T9 sequence (Q9BXA7 1-367): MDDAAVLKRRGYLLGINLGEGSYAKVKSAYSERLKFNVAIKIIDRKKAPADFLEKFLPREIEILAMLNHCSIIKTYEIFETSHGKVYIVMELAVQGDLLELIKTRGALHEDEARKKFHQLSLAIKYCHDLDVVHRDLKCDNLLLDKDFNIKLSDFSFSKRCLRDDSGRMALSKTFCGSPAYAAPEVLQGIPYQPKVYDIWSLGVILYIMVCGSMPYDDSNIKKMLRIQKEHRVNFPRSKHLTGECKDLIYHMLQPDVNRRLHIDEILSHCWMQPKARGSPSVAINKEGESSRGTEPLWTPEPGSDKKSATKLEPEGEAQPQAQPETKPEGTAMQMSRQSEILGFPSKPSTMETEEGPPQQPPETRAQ
Here is the method:
as §1

T1 sequence (Q13555 whole entry): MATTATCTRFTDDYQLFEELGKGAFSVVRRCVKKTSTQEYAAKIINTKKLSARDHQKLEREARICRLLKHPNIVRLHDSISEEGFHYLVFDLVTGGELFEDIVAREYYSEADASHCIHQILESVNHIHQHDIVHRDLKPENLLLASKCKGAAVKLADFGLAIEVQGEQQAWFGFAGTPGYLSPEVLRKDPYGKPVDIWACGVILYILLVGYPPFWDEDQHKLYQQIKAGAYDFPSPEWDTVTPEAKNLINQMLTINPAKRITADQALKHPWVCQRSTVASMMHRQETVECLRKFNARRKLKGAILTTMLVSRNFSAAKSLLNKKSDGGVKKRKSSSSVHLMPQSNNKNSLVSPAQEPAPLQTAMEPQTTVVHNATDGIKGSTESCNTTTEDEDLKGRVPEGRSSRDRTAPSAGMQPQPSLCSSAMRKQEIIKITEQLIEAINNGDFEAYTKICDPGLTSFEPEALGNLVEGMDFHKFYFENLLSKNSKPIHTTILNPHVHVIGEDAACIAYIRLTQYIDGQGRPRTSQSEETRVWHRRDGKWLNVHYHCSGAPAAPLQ
T7 sequence (Q9H3Y6 whole entry): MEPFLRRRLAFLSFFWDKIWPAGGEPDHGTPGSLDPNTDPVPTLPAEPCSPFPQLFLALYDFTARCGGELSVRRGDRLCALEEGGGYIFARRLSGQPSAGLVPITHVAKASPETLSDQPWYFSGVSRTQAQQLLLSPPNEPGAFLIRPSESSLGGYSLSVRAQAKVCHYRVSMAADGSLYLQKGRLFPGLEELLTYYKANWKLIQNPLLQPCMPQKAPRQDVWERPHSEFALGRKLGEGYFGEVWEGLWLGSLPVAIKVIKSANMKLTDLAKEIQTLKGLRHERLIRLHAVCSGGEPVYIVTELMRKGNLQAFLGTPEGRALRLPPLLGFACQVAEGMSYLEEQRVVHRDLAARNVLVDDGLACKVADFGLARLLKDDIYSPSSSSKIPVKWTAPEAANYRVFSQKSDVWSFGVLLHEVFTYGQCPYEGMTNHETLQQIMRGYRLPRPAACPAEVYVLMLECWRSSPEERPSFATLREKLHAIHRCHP

Consider `c1ccc(CNc2cc(-c3c[nH]c4ncccc34)ccn2)cc1` [meriolin 36], for which the residual kinase activity in assay [1] (0.3 µM) is recorded as 34 % of control; in assay [1] (3 µM) it was 6 % of control; in assay [2] (0.3 µM), 0 % of control; in assay [2] (3 µM), 1 % of control; in assay [3] (0.3 µM), 82 % of control; in assay [3] (3 µM) it was 36 % of control. Further, the residual kinase activity in assay [4] (0.3 µM) was 2 % of control; in assay [4] (3 µM) it was 1 % of control; in assay [5] (0.3 µM), 37 % of control; in assay [5] (3 µM), 13 % of control; in assay [6] (0.3 µM) it was 89 % of control; in assay [6] (3 µM), 73 % of control. Besides, the residual kinase activity in assay [7] (0.3 µM) is recorded as 93 % of control; in [7] (3 µM), 73 % of control; in assay [8] (0.3 µM), 104 % of control; in assay [8] (3 µM), 61 % of control; in assay [9] (0.3 µM) it was 50 % of control; in [9] (3 µM), 15 % of control.

As for `COc1ccnc2[nH]cc(-c3cc(N)nc(N)c3)c12` [meriolin 16], the residual kinase activity in assay [1] (0.03 µM) was 94 % of control; in [1] (0.3 µM), 82 % of control; in assay [2] (0.03 µM) it was 16 % of control; in assay [2] (0.3 µM), 1 % of control; in assay [3] (0.03 µM), 96 % of control; in [3] (0.3 µM), 91 % of control. The residual kinase activity is given as 93 % of control in assay [4] (0.03 µM); 51 % of control in [4] (0.3 µM); 27 % of control in assay [5] (0.03 µM); 16 % of control in [5] (0.3 µM); 91 % of control in [6] (0.03 µM); 97 % of control in assay [6] (0.3 µM). In addition, the residual kinase activity is listed as 101 % of control in assay [7] (0.03 µM); 93 % of control in [7] (0.3 µM); 114 % of control in [8] (0.03 µM); 108 % of control in assay [8] (0.3 µM); 109 % of control in [9] (0.03 µM); 83 % of control in assay [9] (0.3 µM).

The values are drawn from paper PMC11167047 (Cell Death Discovery, 2024).
